Each structure is given as a SMILES string. Where two headings read alike, the source gives them in different places. Marks after values point to notes of the source that are not given here.

The text below walks through data of patent publication EP3441076A1, “PHARMACEUTICAL PRODUCT FOR TREATING TUMOR AND COMBINED IMMUNE DEFECT, AND PREPARATION AND APPLICATION THEREOF” (Beijing Lu De Kai Qi Co., Ltd., priority 2016, dated 2017).

Data set [1] has as its system polychromatic erythrocytes in bone marrow of mice. To be noted: for Number of micronucleus (in Ge) / Micronucleus rate: 50 mg/kg•bw, positive control; for Number of micronucleus (in Ge): 5000 cells examined; for Micronucleus rate: P<0.01 vs negative control.
Experimental: The walnut extract, the wormwood extract, and the clove bud extract were respectively subjected to a water bath at 70°C for 1 hour, soaked for 12 hours, and concentrated for testing.
(§1) The healthy Kunming mice provided by the Experimental Animal Center of the National Institute for the Control of Pharmaceutical and Biological Products were selected.
The test was carried out via oral gavage and the administration was performed twice at intervals of 24 hrs. 50 mice weighing 25-30 g were randomly divided into 5 groups according to body weight, 10 in each group, half male and half female. […] The doses of the anti-tumor pharmaceutical product for combined immunization according to the present invention were 1.25, 2.50, and 5.00 g/kg•bw, respectively, and the desired concentrations were adjusted with distilled water. The animals were sacrificed by cervical dislocation six hours after the last administration of the anti-tumor pharmaceutical product for combined immunization according to the present invention. The bone marrow of sternum was acquired and diluted with calf serum, smeared, fixed with methanol, and stained with Giemsa. Under the light microscope, 1000 polychromatic erythrocytes (PRC) were counted per animal, and the incidence of micronucleus was calculated by the permillage of micronucleus-containing PRC and statistically processed.
[2] abbreviates: all dose groups, statistical comparison with distilled water group.

Experimental for sperm: Test materials: The walnut extract, the wormwood extract, and the clove bud extract were all prepared in the same manner as in Example 1. The walnut extract, the wormwood extract, and the clove bud extract were respectively subjected to a water bath at 70°C for 1 hour, soaked for 12 hours, and concentrated for testing.
as §1
Fifty sexually mature male mice weighing 30-35 g were randomly divided into 5 groups. […] The doses of the anti-tumor pharmaceutical product for combined immunization according to the present invention were 1.25, 2.50, and 5.00 g/kg•bw, and the desired concentration were adjusted with distilled water. The mice were administered via oral gavage once a day for 5 days, and the animals were sacrificed 30 days after the last gavage. The epididymis was acquired and sectioned and stained with eosin. Five animals were counted in each group and 1000 intact sperm were counted per animal. The incidence of sperm abnormality (in percentage) was calculated and statistically processed.

For `O=P1(N(CCCl)CCCl)NCCCO1` (centres unmarked) [cp, cyclophosphamide], in the data set on sperm (setting [2]), the “difference in incidence of sperm abnormality from the negative control group” value is given as “extremely significant”. Besides, in the data set with sperm (male mice, 40 mg/kg•bw, positive control, 5000 sperms examined), the “Number of abnormal sperms (in Ge)” value is listed as 517. The “Rate of sperm abnormality” value with sperm (male mice, 40 mg/kg•bw, positive control, P<0.01 vs negative control) was 10.34* %. In data set [1] (Female mice), the “Number of micronucleus (in Ge)” value is listed as 144 and the Micronucleus rate is 28.8* ‰. Besides, in data set [1] (Male mice), the “Number of micronucleus (in Ge)” value is on record as 164 and the Micronucleus rate is recorded as 32.8* ‰. The “difference in micronucleus rate from the negative control group” value in data set [1] (setting [2]) is “extremely significant”.
